# Reference: patent US10898522B2, “Compositions and methods for treating graft versus host disease” (Children's Research Institute, Children's National Medical …, priority 2015, dated 2021)
# “Also recorded” adds a separate entry of the source.
# Assays:
# humanized GvHD mice = test: Treatment of humanized GvHD mice (newborn NSG pups transplanted with human BM cells) with echinomycin; type: in vivo, mouse
# Procedure: FIG. 5. Sustained treatment of echinomycin protects mice against GvHD and eliminates expanded human leukocytes and inflammation. Panel A. Dosing regimen of echinomycin treatment for humanized GvHD mice. The day that mice were transplanted with human BM cells is defined as day 0. Each arrow represents one echinomycin treatment. The dose for each treatment is 10 μg/kg via intraperitoneal injection. Panel B. Longitudinal analysis of clinical representation of an echinomycin-treated mice. Panel C. Representative FACS plots showing the percentage of human CD45^+ cells in PBL of GvHD mice before and after echinomycin treatment. Data is one representative file from 3 mice and representative of three independent experiments. […] Data are representative of three independent experiments.
# FIG. 6. Echinomycin protects mice against lethal GvHD. Panel A. Newborn NSG pups were transplanted with human 5×10^5 BM cells. The mice were treated with the dosing regimen of echinomycin listed in FIG. 5, Panel A. Panel B. Newborn NSG pups were transplanted with human 3×10^5 BM cells. The mice were treated with the dosing regimen of echinomycin listed in FIG. 5, Panel A, except treatment is started at day 17 rather than day 27. […] Data are representative of three independent experiments.
# Human bone marrow mononuclear cells were isolated from healthy human adult bone marrow using density gradient separation were purchased from Stemcell Technologies (Vancouver, Canada) and Lonza (Walkersville, Md., USA). Human CD3^+ cells from BM were sorted from human BM cells using BD Influx (BD Biosciences). Cells were thawed, counted and re-suspended in 1×PBS in a concentration of 0.1-0.5×10^6 per 30 μl. 0.1-0.5×10^6 cells were transplanted via intrahepatic injection into irradiated (1.30 Gy) newborn NSG pups. Human CD45^+ cells in PBMC of recipients were detected by FACS analysis at day 17 to 20 after transplantation.
# Peripheral blood was collected by sub-mandibular bleeding at different times after transplantation of human BM cells. Fluorochrome-labeled antibodies were directly added into whole blood. After 30 min of staining, the unbound antibodies were washed away and the red blood cells were lysed with BD FACS™. The stained cells were analyzed with BD FACS Canto II flow cytometry.
# Immunohistochemistry was performed on tissue sections from skin, liver, lung, spleen, and kidney of humanized NSG mice. Sections were fixed with 4% paraformaldehyde and dehydrated with graded alcohol. After treatment with heated citrate buffer for antigen retrieval, sections were blocked for endogenous peroxidase activity. Sections were then incubated in 10% goat serum followed by primary antibodies at 4° C. overnight. Fixed samples were stained with the following antibodies, anti-human CD45 (MEM-28) and CD3 (ab828, Abcam PLC, Cambridge, Mass.), for detection of infiltrated human cells. After incubation for 30 minutes with secondary antibody, the specimens were visualized by DAB treatment. Sections were lightly counterstained with hematoxylin to enable visualization of nuclei.
# Newborn NSG pups received 0.3-0.5×10^6 human BM cells intrahepatically. Beginning on day 17 or 27, the recipients received 5 intraperitoneal injections of echinomycin, daily at 10 μg/kg. Following 2 days of rest, another 5 intraperitoneal injections of echinomycin were administered at the same dose, once per day. The second round of treatment was performed following 5 days of rest from the prior round of treatment, using the same dose once every other day for 10 total treatments.
# To better understand the importance of HIF-1α in the therapy of GvHD, the effect of HIF-1α inhibition was examined. Newborn pups were transplanted with 0.5×10^6 human BM cells via intra-hepatic injection. Twenty-seven days after transplantation, mice were treated with 10 μg/kg of echinomycin for a total of 20 treatments. […]
# HIF-1α [1] = test: Intracellular FACS staining of HIF-1α in human T cells from spleen of GvHD mice after echinomycin; type: in vivo
# Excerpt: (§1) FIG. 4. HIF-1α accumulates in a high proportion of human T cells derived from spleen and BM of the recipients of human BMC: Impact of echinomycin. Panel A. Representative FACS plots showing the accumulation of HIF-1α in T cells from the spleen and BM of GvHD mice. Spleen and BM cells were isolated from the spleens and BM of GvHD mice, stained with anti-human CD45, CD4, CD8, and then intracellular stained with anti-human HIF-1α. Panel B. Representative FACS plots showing the accumulation of HIF-1α in all human cells from spleens of GvHD mice. Spleen cells were isolated from the spleens of GvHD mice, stained with anti-human CD45, CD4, CD8, and then intracellular stained with anti-human HIF-1α. FACS analysis was performed to determine the percentage of HIF-1α positive cells in CD45^+CD4^+CD8-, CD45^+CD4-D8^+ and CD45^+CD4-D8-subpopulations. Panel C. Representative FACS plots showing the percentage of HIF-1α positive T cells in spleen of GvHD mice after echinomycin treatment. […]
# (§2) Spleens were gently grinded with frosted objective slides and bone marrow was dissociated with syringes to obtain single-cell suspensions and passed through a nylon cell strainer, washed three times with RPMI-1640, labeled with antibodies and analyzed for the presence of different human cell populations. […]
# [2] = tested on: HIF-1α / leukemia stem cells; settings: in vivo; cited from earlier work
# [3] = tested on: FoxP3+ human T cells (Treg); test: FACS of FoxP3+ cells within CD4 T cell subset from spleen and BM of GvHD mice; type: in vivo; settings: one dose of 100 μg/kg echinomycin vs vehicle
# Excerpt: as §1, §2
# HIF-1α [4] = test: Western blot of human HIF-1α in spleen cells from GvHD mice after echinomycin; type: in vivo; settings: echinomycin-treated GvHD mice compared to vehicle controls
# Excerpt: as §1
# To test the significance of HIF-1α accumulation, GvHD recipient mice were treated with echinomycin, a selective inhibitor of HIF-1α. […] Further, spleen cells from GvHD mice were isolated and human HIF-1α protein levels from echinomycin-treated mice and vehicle controls were measured by western blot analysis. […]
compound,measurement,setting,value
CS[C@H]1SC[C@H]2C(=O)N(C)[C@@H](C(C)C)C(=O)OC[C@@H](NC(=O)c3cnc4ccccc4n3)C(=O)N[C@@H](C)C(=O)N(C)[C@@H]1C(=O)N(C)[C@@H](C(C)C)C(=O)OC[C@@H](NC(=O)c1cnc3ccccc3n1)C(=O)N[C@@H](C)C(=O)N2C [echinomycin],median survival,"humanized GvHD mice; 0.3×10^6 human BM cells, treatment started day 17, 10 μg/kg i.p.",119 days
same,survival during the treatment period,"humanized GvHD mice; 0.5×10^6 BM cells, 10 μg/kg, 20 treatments from day 27, all vehicle treated mice died",survived
same,reduction of number of human leukocytes in the peripheral blood,"humanized GvHD mice; 0.5×10^6 human BM cells, 10 μg/kg i.p. from day 27, over 5 weeks",more than 10 fold
same,median survival,"humanized GvHD mice; 0.5×10^6 human BM cells, treatment started day 27, 10 μg/kg i.p.",99 days
same,life span (Kaplan-Meier survival curve) compared with vehicle,"humanized GvHD mice; 3×10^5 or 5×10^5 BM cells, regimen of FIG. 5 Panel A",significantly prolonged life span
same,mice protected against lethal GvHD,humanized GvHD mice; continuous treatment of echinomycin,~100%
same,"clinical symptoms (skin, hair)","humanized GvHD mice; one treated mouse, after two weeks of treatments, 10 μg/kg from day 27",regained smooth skin with visible regrowth of hair
same,human CD3+ T cells in organs (IHC),"humanized GvHD mice; skin, intestine, liver and lung, 10 μg/kg i.p. from day 27, day 75",elimination of T cells from all major organs; also recorded: significant reduction of CD3^+ cells
same,life span longer than that of mice treated starting at Day 27,humanized GvHD mice; treatment started day 17 vs day 27,20 days
same,HIF-1α protein in HIF-1α+ T cells of spleen (FACS),"HIF-1α [1]; single dose of 100 μg/kg echinomycin, overnight",lost HIF-1α protein overnight
same,T cell frequencies,HIF-1α [1]; single dose of echinomycin,largely unaffected
same,adverse reactions towards hematopoietic stem cells,[2],without adverse reactions
same,efficacy in experimental leukemia and lymphoma,[2],effective in treating experimental leukemia and lymphoma
same,proportion of Tregs (FoxP3+ cells within CD4 T cell subset),[3],no apparent difference
same,proportion of Tregs (FoxP3+ cells within CD4 T cell subset),[3]; listed as Echinomycin,does not expand human Treg
same,HIF-1α protein levels in spleen cells (western blot),HIF-1α [4],significantly decreased
